Assay results as given in the NIST ThermoML archive (doi:10.1021/je501178z).
“And” between values parts separate entries of the source, which are not always exact repeats. Equal entries are not always repeated.

Assay: mn = molality of the nth substance listed, in mol/kg
Details: 101.3 kPa, Liquid; for viscosity: Capillary tube (Ostwald / Ubbelohde) method; for mass density: Vibrating tube method

C[C@@H](O)[C@H](N)C(=O)O [L-threonine] + O
Details	mass density, 293.15 K [kg/m3]	mass density, 303.15 K [kg/m3]	mass density, 313.15 K [kg/m3]	mass density, 323.15 K [kg/m3]	viscosity, 293.15 K [mPa·s]	viscosity, 303.15 K [mPa·s]	viscosity, 313.15 K [mPa·s]	viscosity, 323.15 K [mPa·s]
m1 = 0.0999	1002.41	999.81	996.32	992.11	1.035	0.823	0.673	0.562
m1 = 0.1999	1006.56	1003.9	1000.37	996.12	1.072	0.849	0.693	0.579
m1 = 0.2999	1010.63	1007.92	1004.34	1000.05	1.107	0.876	0.714	0.595
m1 = 0.4002	1014.64	1011.87	1008.25	1003.93	1.145	0.905	0.736	0.613
m1 = 0.5	1018.55	1015.73	1012.07	1007.71	1.184	0.934	0.759	0.63
m1 = 0.6	1022.4	1019.52	1015.83	1011.44	1.225	0.965	0.782	0.649
m1 = 0.6998	1026.16	1023.24	1019.52	1015.1	1.269	0.996	0.806	0.667

OC[C@@H](O)[C@@H](O)[C@H](O)[C@H](O)CO [D-mannitol] + O
Details	mass density, m1 = 0.2 [kg/m3]	mass density, m1 = 0.4	mass density, m1 = 0.6 [kg/m3]	mass density, m1 = 0.8 [kg/m3]	mass density, m1 = 1 [kg/m3]	viscosity, m1 = 0.2 [mPa·s]	viscosity, m1 = 0.4	viscosity, m1 = 0.6 [mPa·s]	viscosity, m1 = 0.8 [mPa·s]	viscosity, m1 = 1
293.15 K	1010.52	1022.31 kg/m3	1033.43	1043.98	1054.13	1.104	1.221 mPa·s	1.336	1.494	1.643 mPa·s
303.15 K	1007.82	1019.39 kg/m3	1030.35	1040.88	1050.85	0.874	0.959 mPa·s	1.044	1.151	1.262 mPa·s
313.15 K	1004.26	1015.71 kg/m3 and 1015.74 kg/m3	1026.6	1036.92	1046.79	0.711	0.775 mPa·s and 0.776 mPa·s	0.841	0.917	1.001 mPa·s and 1 mPa·s
323.15 K	999.96	1011.28 kg/m3	1022.09	1032.28	1042.15	0.592	0.642 mPa·s	0.693	0.752	0.814 mPa·s

NCC(=O)O [2-aminoacetic acid] + O
Details	mass density, 293.15 K [kg/m3]	mass density, 303.15 K [kg/m3]	mass density, 313.15 K [kg/m3]	mass density, 323.15 K [kg/m3]	viscosity, 293.15 K [mPa·s]	viscosity, 303.15 K [mPa·s]	viscosity, 313.15 K [mPa·s]	viscosity, 323.15 K [mPa·s]
m1 = 0.1002	1001.41	998.8	–	991.11	1.015	0.809	0.663	0.555
m1 = 0.2	1004.57	1001.91	–	994.14	1.029	0.82	0.672	0.563
m1 = 0.3002	1007.7	1004.98	1001.42	997.14	1.042	0.831	0.681	0.571
m1 = 0.4001	1010.77	1008	1004.4	1000.09	1.057	0.842	0.691	0.579
m1 = 0.5001	1013.8	1010.98	1007.35	1003.01	1.072	0.855	0.701	0.587
m1 = 0.6	1016.78	1013.91	1010.25	1005.88	1.086	0.867	0.711	0.596
m1 = 0.6998	1019.71	1016.8	1013.11	1008.72	1.101	0.878	0.721	0.605

C[C@H](N)C(=O)O [(S)-2-aminopropanoic acid] + O
Details	mass density, 293.15 K [kg/m3]	mass density, 303.15 K [kg/m3]	mass density, 313.15 K [kg/m3]	mass density, 323.15 K [kg/m3]	viscosity, 293.15 K [mPa·s]	viscosity, 303.15 K [mPa·s]	viscosity, 313.15 K [mPa·s]	viscosity, 323.15 K [mPa·s]
m1 = 0.1	1001.06	998.48	995.01	990.81	1.027	0.817	0.668	0.559
m1 = 0.2	1003.88	1001.27	997.76	993.55	1.053	0.837	0.684	0.571
m1 = 0.3	1006.66	1004.01	1000.47	996.24	1.079	0.856	0.7	0.584
m1 = 0.4002	1009.39	1006.71	1003.14	998.9	1.107	0.877	0.715	0.596
m1 = 0.5001	1012.06	1009.35	1005.76	1001.5	1.134	0.897	0.731	0.609
m1 = 0.6002	1014.69	1011.95	1008.33	1004.06	1.163	0.919	0.749	0.622
m1 = 0.6999	1017.27	1014.5	1010.86	1006.58	1.191	0.94	0.765	0.635

CC(C)[C@H](N)C(=O)O [L-valine] + O
Details	mass density, m1 = 0.1 [kg/m3]	mass density, m1 = 0.2001 [kg/m3]	mass density, m1 = 0.3001 [kg/m3]	mass density, m1 = 0.4002 [kg/m3]	mass density, m1 = 0.5 [kg/m3]	viscosity, m1 = 0.1 [mPa·s]	viscosity, m1 = 0.2001 [mPa·s]	viscosity, m1 = 0.3001 [mPa·s]	viscosity, m1 = 0.4002 [mPa·s]	viscosity, m1 = 0.5 [mPa·s]
293.15 K	1000.88	1003.51	1006.08	1008.6	1011.05	1.044	1.089	1.135	1.184	1.233
303.15 K	998.29	1000.88	1003.41	1005.89	1008.31	0.829	0.862	0.896	0.929	0.965
313.15 K	994.81	997.37	999.88	1002.33	1004.72	0.678	0.702	0.728	0.753	0.779
323.15 K	990.6	993.11	995.57	997.98	1000.34	0.565	0.585	0.604	0.624	0.644

N=C(N)NCCC[C@H](N)C(=O)O [L-arginine] + O
Details	mass density, 293.15 K [kg/m3]	mass density, 303.15 K [kg/m3]	mass density, 313.15 K [kg/m3]	mass density, 323.15 K [kg/m3]	viscosity, 293.15 K [mPa·s]	viscosity, 303.15 K [mPa·s]	viscosity, 313.15 K [mPa·s]	viscosity, 323.15 K [mPa·s]
m1 = 0.1	1003.17	1000.55	997.05	992.84	1.054	0.838	0.685	0.572
m1 = 0.2	1008	1005.3	1001.75	997.5	1.108	0.879	0.717	0.598
m1 = 0.3001	1012.68	1009.91	1006.31	1002.03	1.167	0.923	0.751	0.625
m1 = 0.4	1017.21	1014.38	1010.73	1006.41	1.23	0.97	0.788	0.654
m1 = 0.5	1021.6	1018.71	1015.01	1010.67	1.298	1.021	0.826	0.684
m1 = 0.6	1025.86	1022.9	1019.15	1014.8	1.362	1.069	0.864	0.714
m1 = 0.7	1030	1026.97	1023.18	1018.82	1.435	1.124	0.905	0.747
